Measurements reported in US20150126507A1, “COMPOUNDS TO TREAT HEARING LOSS” (Fate Therapeutics, Inc., priority 2013, published 2015).
Entries after “also recorded” stand apart in the source; their conditions may differ.

What was measured:
Type in all cases: cell-based
[1] = tested on: Atoh1-GFP mouse cochlear explants; assay: Atoh1-GFP reporter mouse cochlear explants, confocal imaging and immunostaining; settings: 40 μM, 3 days
Experimental: FIG. 4. Confocal images of E13 and P0 Atoh1-GFP mouse cochlear explants cultured for 3 days in 40 μM Compound 4 or DMSO and immunostained with antibodies against the supporting cell marker Sox2 (red), the hair cell marker MyosinVIIa (Myo7a, blue) and an anti-GFP antibody (green). […] Scale bars: A and B (50 μm); C and E (500 μm); D and F (25 μm).
To identify which cells expressed Atoh1 after hit compound treatment, we utilized cochlear explants from embryonic and postnatal Atoh1-GFP reporter mice. See, e.g., Lumpkin, et al., Gene Expression Patterns 3:389-395 (2003). Both embryonic and neonatal cochleae were used in order to identify if there was a temporal window in which tissue was more responsive to drug treatment.

[2] = tested on: Atoh1 enhancer reporter in HEK293 cells; assay: Atoh1 reporter cell line, firefly luciferase normalized to renilla luciferase; settings: Homo sapiens, HEK293, 48 h, Atoh1 reporter HEK293 cells, treated 2 days, dose response; read-out: ED50 (the source's name)
Experimental: FIG. 2. Dose response data for selected hits. Atoh1 reporter cells plated in 384 well plates were treated with test compounds or vehicle controls for 2 days. Firefly luciferase signal was measured and normalized to the renilla luciferase signal. Results from duplicate wells (circles and triangles) are expressed relative to normalized controls treated with DMSO.
A reporter cell line expressed in HEK293 cells in which Atoh1 enhancer elements flanked a minimal promoter driving firefly luciferase expression was created. Dose response data was generated in the reporter cell line. Atoh1 reporter cells plated in […] plates were treated with test compounds or vehicle controls for 2 days. Firefly luciferase signal was measured and normalized to the renilla luciferase signal.
For high-throughput screening, HEK293 cells were transduced with a lentiviral vector containing a concatamer of Atoh1 enhancer A and B elements, the Promega minP minimal promoter, firefly luciferase coding sequence and hygromycin selectable marker. After selection, the cells were transduced with a second lentiviral vector containing the EF1α constitutive promoter, Renilla luciferase and puromycin selectable marker. A clonal derivative expressing both transgenes was expanded and banked for screening.
A screening assay was done by plating 8000 cells/well in 384 well plates, and treating for 48 hours with 1 and 10 μM test compound in DMSO, vehicle control, or the GSK-3B inhibitor, BIO, as a positive control. Firefly and Renilla luciferase were measured sequentially using Dual-Glo (Promega) with an Envision multi-label plate reader (Perkin Elmer). Data were analyzed after normalizing firefly luciferase signals to Renilla luciferase signals. A primary screen of 50,000 diverse compounds identified 140 hits. […] 10 of these 41 hits were selected for further analysis
To confirm activity in the 10 selected hits, the test compounds were reassayed at 3.3×10^−9, 1×10^−8, 3.3×10^−8, 1×10^−7, 3.3×10^−7, 1×10^−6, 3.3×10^−6 and 1×10^−5 molar concentrations. […] Results from duplicate wells (circles and triangles) are expressed relative to normalized controls treated with DMSO.

[3] = tested on: Atoh1 expression in P5 rat cochlear explants; assay: Cochlear explant assay, Atoh1 expression by qRT-PCR after tobramycin pretreatment; settings: 1 mM tobramycin pretreatment, then compound vs DMSO
Experimental: FIG. 3. Postnatal day 5 rat cochleae were cultured for 2 days with 1 mM tobramycin and then 3 days with test compound or vehicle. Relative Atoh1 expression was measured by qRT-PCR. Results are expressed as average±S.D. for >7 individual cochleae per treatment group. * p<0.05, student's t-test.
The ten selected hits of Example 43 were assayed for the ability to induce Atoh1 expression in primary cultured cochlear explants from the neonatal rat. Postnatal day 5 (P5) rat cochlear explants were cultured with the ototoxic aminoglycoside antibiotic, tobramycin (1 mM), for 3 days prior to drug testing, as an in vitro model of drug-induced hearing loss. […] See, e.g., Ruedi, et al., Larynoscope 62:333-357 (1952). After the 3 day tobramycin pretreatment, the cochlear explants were cultured with the compounds of Example 43 or DMSO vehicle for an additional 2 days. Atoh1 expression levels, measured by qRT-PCR and normalized to ribosomal 18S expression, after hit compound treatments are shown in FIG. 3.

[4] = tested on: Atoh1 reporter cell line; assay: Transcriptional profiling of Atoh1 reporter cell line by gene profiling microarray; settings: 5 μM, 2 days, vs DMSO
Experimental: FIG. 5. An Atoh1 reporter cell line was treated with 5 μM Compound 4 or DMSO for 2 days. Gene expression was measured with a gene profiling microarray and plotted.
In an attempt to identify the signaling pathway by which Compound 4 induces Atoh1 expression, transcriptional profiling of the Atoh1 reporter cell line was compared after treatment with Compound 4 or DMSO control. The Atoh1 reporter cell line was treated with 5 μM or Compound 4 or DMSO for 2 days. […] An upregulation of endogenous Atoh1 with Compound 4 treatment in the reporter line was not observed, presumably because the overexpressed reporter sequence outcompeted the native Atoh1 regulatory domain. […] See, e.g., Martinez, et al., Toxicol. Sci. 82:429-435, (2004); Ito, et al., J. Immunotoxicol. 3(1):21-30 (2006); and Sun, et al., Nucleic Acids Res. 32(15):4512-4523 (2004). […] See, e.g., Qian, et al., J. Immunol. 166:2553-2561 (2001) and Kimura, et al., Biochem. Biophys. Res. Comm. 264:86-92 (1999).

[5] = P0 Atoh1-GFP mouse cochlear explants

Cc1c(C(=O)Nc2nccs2)oc2ccccc12 [Compound 4]
averaged total length of the organ of Corti vs DMSO ([1]; Atoh1-GFP mouse cochlear explants): no difference | GFP+ hair cells in E13 explants vs DMSO control ([1]; E13 Atoh1-GFP mouse cochlear explants): greater number of GFP-positive hair cells; also recorded: increase in GFP+ hair cells | GFP+ hair cells with Sox2+ nuclei in P0 explants [1, 5]: numerous ectopic GFP+ hair cells with weak nuclear Sox2 expression; also recorded: numerous GFP+/MyosinVIIa+ cells were observed to have Sox2+ nuclei | GFP-positive hair cell domain in P0 explants vs DMSO control [1, 5]: expansion in the GFP+ hair cell domain; also recorded: expansion of the GFP-positive hair cell domain | EC50 [2]: 1.3 µM | Atoh1 expression by qRT-PCR normalized to ribosomal 18S [3]: largest stimulation of Atoh1 expression | upregulation of annotated genes (EGR1, SCIN, CYP1A1, CYP1B1, TACT, MAFF) [4]: greater than 3 fold | upregulation of endogenous Atoh1 [4]: not observed
